Measured values from US20260272934A1 (The United States of America, as represented by the …, priority 2023, published 2026).

What was measured:
Alpha1B = Alpha1B (Homo sapiens, UniProt P35368); assay: Off-target primary and secondary screen; format: binding; settings: 10 mM sample
GABAA = assay: Off-target primary and secondary screen; format: binding; settings: for Primary screen AVE (% inhib) ± SD: 10 mM sample
Plk2 PBD = assay: FP-based inhibition assay; format: binding; settings: N.S. = Not significant
Method: (§1) In the following, PBD1-3 fluorescence polarization (FP) binding assays were carried out for determining the Plk1 specificity. FP assays were carried out essentially as described previously {Liu, 2011 #2790; Qian, 2014 #1416}. All samples were analyzed approximately 30 min after reaction in a 384-well format using the SpectraMax Paradigm multi-mode microplate detection platform (Molecular Devices). Data were analyzed after carrying out at least three independent experiments using GraphPad Prism software version 7.

Plk3 PBD = assay: FP-based inhibition assay; format: binding; settings: N.S. = Not significant
Method: as §1

M4 = M4 (Homo sapiens, UniProt P08173); assay: Off-target primary and secondary screen; format: binding; settings: 10 mM sample
5-HT1B = 5-HT1B (Homo sapiens, UniProt P28222); assay: Off-target primary and secondary screen; format: binding; settings: 10 mM sample
5-HT5A = 5-HT5A (Homo sapiens, UniProt P47898); assay: Off-target primary and secondary screen; format: binding; settings: 10 mM sample
5-HT1E = 5-HT1E (Homo sapiens, UniProt P28566); assay: Off-target primary and secondary screen; format: binding; settings: 10 mM sample
Beta1 = Beta1 (Homo sapiens, UniProt P08588); assay: Off-target primary and secondary screen; format: binding; settings: 10 mM sample
D4 = D4 (Homo sapiens, UniProt P21917); assay: Off-target primary and secondary screen; format: binding; settings: 10 mM sample
Sigma 2 = Sigma 2 (Homo sapiens, UniProt Q5BJF2); assay: Off-target primary and secondary screen; format: binding; settings: 10 mM sample
M2 = M2 (Homo sapiens, UniProt P08172); assay: Off-target primary and secondary screen; format: binding; settings: 10 mM sample
DAT = DAT (Homo sapiens, UniProt Q01959); assay: Off-target primary and secondary screen; format: binding; settings: 10 mM sample
5-HT2B = 5-HT2B (Homo sapiens, UniProt P41595); assay: Off-target primary and secondary screen; format: binding; settings: 10 mM sample
M1 = M1 (Homo sapiens, UniProt P11229); assay: Off-target primary and secondary screen; format: binding; settings: 10 mM sample
H1 = H1 (Homo sapiens, UniProt P35367); assay: Off-target primary and secondary screen; format: binding; settings: 10 mM sample
PBD1 = PBD1 (Homo sapiens, UniProt P53350); assay: FP-based inhibition assay; format: binding; settings: read-out: PBD1 IC50 ± SD
Method: as §1, with “FP assays were carried out essentially as described previously {Liu, 2011 #2790; Qian, 2014 #1416}.” left out

Beta3 = Beta3 (Homo sapiens, UniProt P13945); assay: Off-target primary and secondary screen; format: binding; settings: 10 mM sample
5-HT6 = 5-HT6 (Homo sapiens, UniProt P50406); assay: Off-target primary and secondary screen; format: binding; settings: 10 mM sample
Aipha1D = Aipha1D (Homo sapiens, UniProt P25100); assay: Off-target primary and secondary screen; format: binding; settings: 10 mM sample
H3 = H3 (Homo sapiens, UniProt Q9Y5N1); assay: Off-target primary and secondary screen; format: binding; settings: 10 mM sample
5-HT2A = 5-HT2A (Homo sapiens, UniProt P28223); assay: Off-target primary and secondary screen; format: binding; settings: for Primary screen AVE (% inhib) ± SD: 10 mM sample
Beta2 = Beta2 (Homo sapiens, UniProt P07550); assay: Off-target primary and secondary screen; format: binding; settings: 10 mM sample
Alpha1A = Alpha1A (Homo sapiens, UniProt P35348); assay: Off-target primary and secondary screen; format: binding; settings: 10 mM sample
[1] = target: T1, PBD1 WT or mutants (F559) (Homo sapiens, UniProt P53350, F559D); assay: FP-based inhibition and U2OS imaging with PBD1/Plk1 WT or F559 mutants; format: binding; settings: in vitro and in vivo; U2OS cells 8 μM
T1 construct: the indicated PBD1 WT or mutants in the presence of various concentrations of Allopole
Method: Bars, mean #s.d. FIG. 7(b) depicts the results of FP-based inhibition assays for the interaction between FITC-Ahx-DPPLHS-pT-AI-NH2 and the indicated PBD1 WT or mutants in the presence of various concentrations of Allopole. Bars, mean±s.d. FIG. 7(c) depicts confocal imaging and quantification of Plk1 endogenous promoter (Pendo)-fused mGFP-Plk1 signals in U2OS cells silenced for endogenous Plk1 (siPlk1) and treated with 8 μM of Allopole for the indicated length of time (Experimental procedure at bottom, right). Arrowheads, centrosomes. Quantification of Pendo-mGFP-Plk1 signals was performed with the images acquired from three independent experiments [n=a total of 93, 53, and 79 cells for Plk1 WT samples (in order) and n=a total of 92, 64, and 76 cells for the F559D mutant samples (in order)]. Bars, mean±s.d. Arrowheads, centrosomes. ****, P<0.0001 (unpaired two-tailed t-test).

Hela cells = assay: Immunoprecipitation, confocal imaging and time-lapse analyses in Hela cells; format: cell-based
Excerpt: FIG. 5 illustrates the inhibition by Allopole of PBD1-dependent interactions and subcellular localizations leading to mitotic block in Hela cells. FIG. 5a depicts the immunoprecipitation and immunoblotting analyses.

Chain of 5-HT2A (P28223 whole entry, species assumed): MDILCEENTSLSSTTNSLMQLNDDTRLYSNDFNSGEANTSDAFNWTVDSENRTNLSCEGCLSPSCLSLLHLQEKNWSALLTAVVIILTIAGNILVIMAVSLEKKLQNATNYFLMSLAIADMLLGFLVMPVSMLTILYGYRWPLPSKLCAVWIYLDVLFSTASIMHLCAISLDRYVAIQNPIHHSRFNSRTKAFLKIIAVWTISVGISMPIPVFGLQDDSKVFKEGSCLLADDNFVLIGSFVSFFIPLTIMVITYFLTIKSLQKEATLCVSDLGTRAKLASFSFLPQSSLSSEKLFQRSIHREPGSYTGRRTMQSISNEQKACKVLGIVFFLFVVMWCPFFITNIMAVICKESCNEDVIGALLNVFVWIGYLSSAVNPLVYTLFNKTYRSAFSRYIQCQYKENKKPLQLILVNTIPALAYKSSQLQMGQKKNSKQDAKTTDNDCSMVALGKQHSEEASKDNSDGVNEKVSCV
Chain of Beta2 (P07550 whole entry): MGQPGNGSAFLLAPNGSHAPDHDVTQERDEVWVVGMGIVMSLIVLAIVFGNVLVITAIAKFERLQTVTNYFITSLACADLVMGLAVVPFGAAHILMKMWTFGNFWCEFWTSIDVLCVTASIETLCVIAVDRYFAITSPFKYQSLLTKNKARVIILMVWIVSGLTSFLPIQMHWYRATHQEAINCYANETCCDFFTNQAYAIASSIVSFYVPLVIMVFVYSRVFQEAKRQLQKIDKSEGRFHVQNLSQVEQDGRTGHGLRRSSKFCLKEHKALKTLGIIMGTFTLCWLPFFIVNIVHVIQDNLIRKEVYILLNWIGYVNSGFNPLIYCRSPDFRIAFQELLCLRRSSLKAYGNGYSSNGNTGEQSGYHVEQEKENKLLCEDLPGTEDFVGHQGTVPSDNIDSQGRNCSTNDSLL
Chain of Beta1 (P08588 whole entry): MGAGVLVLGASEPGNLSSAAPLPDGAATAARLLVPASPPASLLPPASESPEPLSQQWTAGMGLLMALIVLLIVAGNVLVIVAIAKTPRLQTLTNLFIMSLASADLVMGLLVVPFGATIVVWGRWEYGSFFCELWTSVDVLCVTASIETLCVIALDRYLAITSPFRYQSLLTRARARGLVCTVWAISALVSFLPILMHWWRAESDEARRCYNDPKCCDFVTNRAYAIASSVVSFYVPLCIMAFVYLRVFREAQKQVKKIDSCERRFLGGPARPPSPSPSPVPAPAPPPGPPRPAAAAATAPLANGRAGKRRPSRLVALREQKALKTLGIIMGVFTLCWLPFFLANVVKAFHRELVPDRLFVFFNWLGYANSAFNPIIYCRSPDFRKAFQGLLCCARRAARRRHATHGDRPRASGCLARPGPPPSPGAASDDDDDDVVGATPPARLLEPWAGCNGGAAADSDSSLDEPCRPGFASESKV
Chain of DAT (Q01959 whole entry, species assumed): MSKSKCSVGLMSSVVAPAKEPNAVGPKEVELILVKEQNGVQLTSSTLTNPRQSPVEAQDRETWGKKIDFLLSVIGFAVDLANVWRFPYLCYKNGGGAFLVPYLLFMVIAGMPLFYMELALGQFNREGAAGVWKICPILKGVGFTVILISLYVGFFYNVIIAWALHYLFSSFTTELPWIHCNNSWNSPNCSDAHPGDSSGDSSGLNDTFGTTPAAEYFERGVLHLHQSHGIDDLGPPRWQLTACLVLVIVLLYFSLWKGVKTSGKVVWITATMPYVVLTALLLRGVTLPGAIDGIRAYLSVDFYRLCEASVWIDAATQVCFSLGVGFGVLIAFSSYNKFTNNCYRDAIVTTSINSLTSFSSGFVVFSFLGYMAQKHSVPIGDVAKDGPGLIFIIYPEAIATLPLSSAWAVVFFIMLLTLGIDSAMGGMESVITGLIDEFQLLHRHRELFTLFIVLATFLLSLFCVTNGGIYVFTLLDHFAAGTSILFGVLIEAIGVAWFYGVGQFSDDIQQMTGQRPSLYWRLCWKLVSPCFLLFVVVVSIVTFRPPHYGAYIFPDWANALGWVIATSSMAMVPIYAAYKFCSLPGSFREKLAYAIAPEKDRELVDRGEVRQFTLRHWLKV
Chain of M2 (P08172 whole entry): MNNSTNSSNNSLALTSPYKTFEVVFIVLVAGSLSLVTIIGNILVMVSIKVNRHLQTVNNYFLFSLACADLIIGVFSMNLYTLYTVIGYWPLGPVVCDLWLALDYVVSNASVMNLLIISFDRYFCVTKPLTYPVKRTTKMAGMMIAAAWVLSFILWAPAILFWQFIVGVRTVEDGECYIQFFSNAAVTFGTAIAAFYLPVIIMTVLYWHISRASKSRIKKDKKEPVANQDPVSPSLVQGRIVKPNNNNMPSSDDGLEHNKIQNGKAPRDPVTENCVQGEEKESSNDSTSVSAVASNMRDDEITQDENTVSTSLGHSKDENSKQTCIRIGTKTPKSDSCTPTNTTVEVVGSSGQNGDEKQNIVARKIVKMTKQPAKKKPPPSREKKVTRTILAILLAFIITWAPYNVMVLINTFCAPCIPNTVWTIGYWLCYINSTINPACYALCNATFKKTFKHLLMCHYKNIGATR
Chain of 5-HT1B (P28222 whole entry, species assumed): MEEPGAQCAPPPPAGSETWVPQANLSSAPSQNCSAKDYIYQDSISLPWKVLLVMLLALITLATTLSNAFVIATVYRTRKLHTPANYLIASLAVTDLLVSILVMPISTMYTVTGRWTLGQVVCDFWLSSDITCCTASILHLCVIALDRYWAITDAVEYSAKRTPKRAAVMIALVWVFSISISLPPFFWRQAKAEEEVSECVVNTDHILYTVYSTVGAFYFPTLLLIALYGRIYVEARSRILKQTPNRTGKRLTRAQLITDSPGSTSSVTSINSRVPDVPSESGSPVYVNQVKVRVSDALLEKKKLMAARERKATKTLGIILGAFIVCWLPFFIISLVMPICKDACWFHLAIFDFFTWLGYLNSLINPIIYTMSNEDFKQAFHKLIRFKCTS
Chain of D4 (P21917 whole entry): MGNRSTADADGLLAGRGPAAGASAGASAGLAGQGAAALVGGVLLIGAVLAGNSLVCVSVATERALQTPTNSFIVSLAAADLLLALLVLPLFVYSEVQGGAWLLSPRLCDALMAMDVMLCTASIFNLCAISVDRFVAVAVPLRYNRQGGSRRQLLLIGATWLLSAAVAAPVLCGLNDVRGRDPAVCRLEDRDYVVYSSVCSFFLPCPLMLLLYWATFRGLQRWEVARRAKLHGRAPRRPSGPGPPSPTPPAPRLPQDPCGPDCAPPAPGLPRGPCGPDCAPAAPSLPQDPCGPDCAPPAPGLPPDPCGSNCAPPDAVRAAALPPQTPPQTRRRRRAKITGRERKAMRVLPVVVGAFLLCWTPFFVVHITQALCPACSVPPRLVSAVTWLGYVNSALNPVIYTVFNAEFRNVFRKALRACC
Chain of Sigma 2 (Q5BJF2 whole entry): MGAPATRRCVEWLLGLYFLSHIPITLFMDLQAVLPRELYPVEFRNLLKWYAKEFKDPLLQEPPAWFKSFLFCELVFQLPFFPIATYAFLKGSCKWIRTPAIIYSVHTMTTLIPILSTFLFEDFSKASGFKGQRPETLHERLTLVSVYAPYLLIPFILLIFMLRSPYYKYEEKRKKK
Chain of Aipha1D (P25100 whole entry): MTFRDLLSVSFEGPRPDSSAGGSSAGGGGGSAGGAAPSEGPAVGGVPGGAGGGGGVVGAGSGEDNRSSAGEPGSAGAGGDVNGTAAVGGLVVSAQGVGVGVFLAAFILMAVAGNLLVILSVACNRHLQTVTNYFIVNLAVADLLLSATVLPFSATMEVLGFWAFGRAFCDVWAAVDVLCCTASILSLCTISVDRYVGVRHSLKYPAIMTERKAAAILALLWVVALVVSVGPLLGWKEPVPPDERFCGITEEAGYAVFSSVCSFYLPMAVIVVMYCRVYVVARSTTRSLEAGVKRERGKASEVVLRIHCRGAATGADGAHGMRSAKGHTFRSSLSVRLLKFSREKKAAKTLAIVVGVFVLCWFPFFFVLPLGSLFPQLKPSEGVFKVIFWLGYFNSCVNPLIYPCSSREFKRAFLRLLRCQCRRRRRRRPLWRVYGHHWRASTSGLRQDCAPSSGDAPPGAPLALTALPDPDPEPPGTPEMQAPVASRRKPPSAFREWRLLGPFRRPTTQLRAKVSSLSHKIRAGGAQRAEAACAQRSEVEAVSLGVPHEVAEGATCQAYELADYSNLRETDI
Chain of 5-HT5A (P47898 whole entry, species assumed): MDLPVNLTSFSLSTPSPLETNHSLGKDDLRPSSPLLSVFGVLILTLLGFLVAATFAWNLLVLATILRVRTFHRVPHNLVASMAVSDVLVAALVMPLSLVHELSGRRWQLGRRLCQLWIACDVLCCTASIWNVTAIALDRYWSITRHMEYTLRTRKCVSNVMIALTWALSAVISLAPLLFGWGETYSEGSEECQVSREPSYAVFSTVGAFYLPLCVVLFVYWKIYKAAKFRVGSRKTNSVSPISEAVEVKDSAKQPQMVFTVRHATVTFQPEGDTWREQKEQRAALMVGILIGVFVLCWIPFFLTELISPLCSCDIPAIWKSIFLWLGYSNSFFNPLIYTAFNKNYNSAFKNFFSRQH
Chain of Beta3 (P13945 whole entry): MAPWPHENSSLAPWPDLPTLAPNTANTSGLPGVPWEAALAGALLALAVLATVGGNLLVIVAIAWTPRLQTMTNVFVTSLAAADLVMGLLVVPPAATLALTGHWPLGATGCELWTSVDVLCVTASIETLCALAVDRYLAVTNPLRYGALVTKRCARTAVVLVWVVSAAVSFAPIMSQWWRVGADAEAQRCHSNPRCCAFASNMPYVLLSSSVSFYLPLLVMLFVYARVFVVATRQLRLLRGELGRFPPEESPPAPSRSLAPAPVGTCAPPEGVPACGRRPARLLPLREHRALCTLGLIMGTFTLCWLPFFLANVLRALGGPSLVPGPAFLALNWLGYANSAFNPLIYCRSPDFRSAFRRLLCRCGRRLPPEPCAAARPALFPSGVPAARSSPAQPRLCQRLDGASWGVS

Compound | Primary screen AVE (% inhib) ± SD (Alpha1B) [% inhib] | Ki (GABAA) [µM] | Primary screen AVE (% inhib) ± SD (GABAA) [% inhib] | Primary screen AVE (% inhib) ± SD (M4) [% inhib] | Primary screen AVE (% inhib) ± SD (5-HT1B) [% inhib] | Primary screen AVE (% inhib) ± SD (5-HT5A) [% inhib] | Primary screen AVE (% inhib) ± SD (5-HT1E) [% inhib] | Primary screen AVE (% inhib) ± SD (Beta1) [% inhib] | Primary screen AVE (% inhib) ± SD (D4) [% inhib] | Primary screen AVE (% inhib) ± SD (Sigma 2) [% inhib] | Primary screen AVE (% inhib) ± SD (M2) [% inhib] | Primary screen AVE (% inhib) ± SD (DAT) [% inhib] | Primary screen AVE (% inhib) ± SD (5-HT2B) [% inhib] | Primary screen AVE (% inhib) ± SD (M1) [% inhib] | Primary screen AVE (% inhib) ± SD (H1) [% inhib] | Primary screen AVE (% inhib) ± SD (Beta3) [% inhib] | Primary screen AVE (% inhib) ± SD (5-HT6) [% inhib] | Primary screen AVE (% inhib) ± SD (Aipha1D) [% inhib] | Primary screen AVE (% inhib) ± SD (H3) [% inhib] | Primary screen AVE (% inhib) ± SD (5-HT2A) [% inhib] | further results
O=c1c2sc(Cl)cc2n2c(=S)[nH]nc2n1CC1CC1 [Compound 19, 7-Chloro-4-(cyclopropylmethyl)-1-thioxo-2,4-dihydrothieno[2,3-e][1,2,4]triazolo[4,3-a]pyrimidin-5 (1H)-one] | -7.7 ± 9.7 | > 10 | 35.7 ± 11.1 | -8.8 ± 4.8 | 17.7 ± 42.2 | -1.4 ± 14.4 | 31.3 ± 7.6 | -6.2 ± 19.4 | -24.3 ± 4.4 | 40.6 ± 9.5 | 21.1 ± 19.7 | 43.9 ± 13.0 | -17.7 ± 11.2 | 39.3 ± 10.7 | 11.5 ± 2.8 | 17.9 ± 8.6 | -5.0 ± 11.7 | -9.9 ± 23.4 | -18.5 ± 3.8 | 37.0 ± 10.4 | Plk2 PBD IC50 ± SD (Plk2 PBD): N.S.; Plk3 PBD IC50 ± SD (Plk3 PBD): N.S.; IC50 (PBD1): 2.53 ± 0.18 nM; Primary screen AVE (% inhib) ± SD (Beta2): -2.1 ± 19.7 % inhib; Primary screen AVE (% inhib) ± SD (Alpha1A): -9.4 ± 18.0 % inhib
Cn1cnc([N+](=O)[O-])c1Sc1nnc2n(CC3CC3)c(=O)c3sc(Cl)cc3n12 [Compound 20, 7-Chloro-4-(cyclopropylmethyl)-1-((1-methyl-4-nitro-1H-imidazol-5-yl)thio) thieno[2,3-e][1,2,4]triazolo[4,3-a]pyrimidin-5 (4H)-one] | -1.6 ± 9.5 | > 10 | 33.3 ± 4.2 | -8.7 ± 9.5 | 60.8 ± 40.9 | 24.5 ± 9.3 | 22.2 ± 10.5 | 67.3 ± 49.1 | 12.6 ± 4.9 | 40.7 ± 5.8 | 9.3 ± 19.3 | 54.0 ± 10.7 | -0.5 ± 5.0 | 50.7 ± 26.1 | 35.8 ± 11.9 | 30.8 ± 22.8 | 21.9 ± 15.6 | -15.1 ± 19.8 | -12.5 ± 7.9 | 52.4 ± 11.8 | sensitivity of Plk1 with F559 mutated to a charged residue to treatment [1]: insensitive; effect of inhibition of PBD1-dependent interactions and subcellular localizations (Hela cells): mitotic block; Ki (5-HT2A): 9.2 µM; Primary screen AVE (% inhib) ± SD (Beta2): 0.1 ± 10.6 % inhib; Primary screen AVE (% inhib) ± SD (Alpha1A): 40.6 ± 10.5 % inhib
